{
  "source": "paper PMC9934367",
  "about": "“Functional impact of subunit composition and compensation on Drosophila melanogaster nicotinic receptors–targets of neonicotinoids” (PLOS Genetics, 2023)",
  "key": {"D. melanogaster nAChRs": {"system": "D. melanogaster nAChRs", "assay": "Comparison of agonist activity between nAChRs expressed in X. laevis oocytes (one-way ANOVA, Kruskal-Wallis)", "format": "cell-based", "procedure": "(§1) We minimised the use of X. laevis according to the UK Animals (Scientific Procedures) Act, 1986. […] Oocytes were defolliculated after collagenase treatment in Ca^2+-free standard oocyte saline (Ca^2+-free SOS). cRNAs of the nAChR subunits and co-factors mixed at a concentration of 0.1 mg/mL was injected into oocytes at a volume of 50 nL. Then the oocytes were incubated in the incubation medium (SOS supplemented with sodium pyruvate (Nacalai Tesque, #13058–12), penicillin-streptomycin (MilliporeSigma, #P4333), gentamycin (Nacalai Tesque, #16672–04), and 4% horse serum (Thermo Fisher Scientific, #26050–070) for 3−4 days prior to electrophysiology.\n(§2) Each defolliculated X. laevis oocyte was secured in a Perspex recording chamber and perfused with the standard oocyte saline (SOS) containing 0.5 μM atropine (SOSA) at a flow rate of 7−10 mL/min [48]. Two glass electrodes filled with 2 M KCl were impaled into each oocyte and the membrane potential was clamped at -100 mV. […] The peak amplitude of the response was measured and analysed by pCLAMP (Molecular Devices, USA).\n(§3) Y=Imax/1+10^(logEC50‐X)nH\n(§4) Where Y is the normalised response, X is log[ligand (M)], EC50 is the half maximal concentration (M), Imax is the maximum normalised response and nH is the Hill coefficient.\nPrism software was employed for the statistical analyses. […] One-way ANOVA was used to analyse the differences of the ligand agonist activity in terms of pEC50 on the various nAChRs expressed in X. laevis as well as data obtained with D. melanogaster larvae and adults."}, "D. melanogaster": {"system": "D. melanogaster", "conditions": "Dα2 knockout; cited from earlier work"}, "Dα2/chicken β2 nAChR": {"system": "Dα2/chicken β2 nAChR", "conditions": "cited from earlier work"}, "Dα2/Dα3/Dβ1 nAChR": {"target": "T1, Dα2/Dα3/Dβ1 nAChR (Drosophila melanogaster, UniProt P04755+P17644+Q9W3G6)", "T1 construct": "Dα2 (NP_524482); Dβ1 (NP_523927); expressed in transfected cells; host or cells: Xenopus laevis oocytes (cRNA injection)", "assay": "Voltage-clamp electrophysiology, nAChR expressed in X. laevis oocytes", "format": "cell-based, D. melanogaster", "procedure": "(§5) cDNAs of the nAChR subunits and co-factors were cloned into pcDNA3.1 (+) vector (Thermo Fisher Scientific). The accession numbers of the nAChR subunits and cofactors are as follows: Dα1 (NP_524481), Dα2 (NP_524482), Dα3 (NP_525079), Dα4 (CAB77445), Dβ1 (NP_523927), Dβ2 (NP_524483), Dβ3 (NP_525098), DmRIC-3 (CAP16647), DmUNC-50 (NP_649813), and DmTMX3 (NP_648847). cRNAs were prepared using the mMESSAGE mMACHINE T7 ULTRA Transcription Kit (Thermo Fisher Scientific, #AM1345) according to the manual with the cDNA template which was cut with appropriate restriction enzymes at the 3’ end of the cDNA.\nas §1, §2, §3, §4"}, "Dα3/Dβ1/Dβ2 nAChR": {"target": "T2, Dα3/Dβ1/Dβ2 nAChR (Drosophila melanogaster, UniProt P04755+P25162+Q9W3G6)", "T2 construct": "Dβ1 (NP_523927); Dβ2 (NP_524483); expressed in transfected cells; host or cells: Xenopus laevis oocytes (cRNA injection)", "assay": "Voltage-clamp electrophysiology, nAChR expressed in X. laevis oocytes", "format": "cell-based, D. melanogaster", "procedure": "as §5, §1, §2, §3, §4"}, "Dα1/chicken β2 nAChR": {"system": "Dα1/chicken β2 nAChR", "conditions": "cited from earlier work"}, "Dα3/Dβ1 nAChR": {"target": "T3, Dα3/Dβ1 nAChR (Drosophila melanogaster, UniProt P04755+Q9W3G6)", "T3 construct": "Dβ1 (NP_523927); expressed in transfected cells; host or cells: Xenopus laevis oocytes (cRNA injection)", "assay": "cell-based", "format": "cell-based, D. melanogaster", "procedure": "as §5, §1, §2, §3, §4"}},
  "data": [
    {"compound": "N#C/N=C1\\SCCN1Cc1ccc(Cl)nc1", "note": "[Thiacloprd]", "values": [
      {"measurement": "Difference of Imax values, nAChRs compared", "setting": "D. melanogaster nAChRs; Dα1/Dα2/Dα3/Dβ1/Dβ2 vs. Dα1/Dα2/Dα4/Dβ1/Dβ2", "result": -0.007},
      {"measurement": "Difference of Imax values, nAChRs compared", "setting": "D. melanogaster nAChRs; Dα1/Dα2/Dα3/Dβ1/Dβ2 vs. Dα1/Dα2/Dβ1/Dβ2/Dβ3", "result": 0.036},
      {"measurement": "Difference of Imax values, nAChRs compared", "setting": "D. melanogaster nAChRs; Dα1/Dα2/Dα3/Dβ1/Dβ2 vs. Dα1/Dα3/Dα4/Dβ1/Dβ2", "result": 0.033},
      {"measurement": "Difference of Imax values, nAChRs compared", "setting": "D. melanogaster nAChRs; Dα1/Dα2/Dα3/Dβ1/Dβ2 vs. Dα1/Dα3/Dβ1/Dβ2/Dβ3", "result": -0.030},
      {"measurement": "Difference of Imax values, nAChRs compared", "setting": "D. melanogaster nAChRs; Dα1/Dα2/Dα3/Dβ1/Dβ2 vs. Dα2/Dα3/Dα4/Dβ1/Dβ2", "result": 0.041},
      {"measurement": "Difference of Imax values, nAChRs compared", "setting": "D. melanogaster nAChRs; Dα1/Dα2/Dα3/Dβ1/Dβ2 vs. Dα2/Dα3/Dβ1/Dβ2/Dβ3", "result": 0.049}
    ]},
    {"compound": "CCN(Cc1ccc(Cl)nc1)/C(=C/[N+](=O)[O-])NC", "note": "[nitenpyram]", "values": [
      {"measurement": "sensitivity in larvae, effect of knockout", "setting": "D. melanogaster", "result": "enhanced"}
    ]},
    {"compound": "α-Bungarotoxin [α-BTX]", "values": [
      {"measurement": "sensitivity to α-BTX", "setting": "Dα2/chicken β2 nAChR", "result": "resistant"},
      {"measurement": "blocking effect on ACh-induced response", "setting": "Dα2/Dα3/Dβ1 nAChR", "result": "minimal blocking effect"},
      {"measurement": "blocking effect on ACh-induced response", "setting": "Dα3/Dβ1/Dβ2 nAChR", "result": "minimal blocking effect"},
      {"measurement": "sensitivity to α-BTX", "setting": "Dα1/chicken β2 nAChR", "result": "sensitive"},
      {"measurement": "blocking effect on ACh-induced response", "setting": "Dα3/Dβ1 nAChR", "result": "minimal blocking effect"}
    ]}
  ]
}
